Test results reported in US20100152622A1, “MOTOR PHENOMENON MEASUREMENT” (priority 2007, published 2010).
“Also recorded” adds a separate entry of the source.

Tests used:
schizophrenia patients [1] = conditions: for average normalized jerk (ANJ) score compared between medication groups / average normalized jerk (ANJ) score compared with healthy subjects: handwriting dysfluency; for average normalized jerk (ANJ) score compared between medication groups: marker of TD/EPS, 9 handwriting tasks, dominant hand, 1, 2, 4 cm, versus other medications; for average normalized jerk (ANJ) score compared with healthy subjects: medication group versus normal healthy subjects
schizophrenia patients [2] = test: Observer-based EPS severity ratings (SAEPS, AIMS, BARS); type: in vivo, human
schizophrenia patients [3] = conditions: in vivo
dopamine receptor = dopamine receptor (Homo sapiens, UniProt P14416); conditions: PET in schizophrenic patients before and after treatment; cited from earlier work
schizophrenia patients [4] = test: Handwriting velocity scaling (VS) in patients grouped by antipsychotic medication; type: in vivo, human; conditions: lower VS scores indicate more parkinsonian bradykinesia; loops of 1, 2, 4 cm
Description: Lower VS scores indicate more parkinsonian bradykinesia.
This measure expresses the extent to which movements are sped up when size is increased.
One simple and direct measure is the increase of a velocity measure in one stroke (e.g., in cm/s) divided by the increase of size (e.g., in cm). This resulting velocity scaling has a unit of size/duration/size or 1/duration.

dopamine receptor, sequence (P14416 whole entry): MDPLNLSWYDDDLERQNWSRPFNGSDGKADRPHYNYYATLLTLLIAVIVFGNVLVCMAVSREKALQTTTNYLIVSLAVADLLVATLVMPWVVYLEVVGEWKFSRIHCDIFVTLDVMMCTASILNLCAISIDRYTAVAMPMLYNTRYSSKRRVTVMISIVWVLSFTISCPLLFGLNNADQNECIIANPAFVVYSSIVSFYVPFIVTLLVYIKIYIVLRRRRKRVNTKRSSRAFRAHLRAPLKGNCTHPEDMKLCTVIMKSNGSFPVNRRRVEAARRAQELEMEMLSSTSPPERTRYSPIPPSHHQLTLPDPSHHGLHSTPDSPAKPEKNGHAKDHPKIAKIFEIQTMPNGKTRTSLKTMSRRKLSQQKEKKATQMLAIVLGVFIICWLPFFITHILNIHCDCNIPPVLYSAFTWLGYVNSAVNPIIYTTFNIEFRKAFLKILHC

Row | effect of antipsychotic type on average normalized jerk and peak velocity (schizophrenia patients [1]; collapsed across all 14 task conditions) | SMILES | average normalized jerk (ANJ) score compared between medication groups (schizophrenia patients [1]) | average normalized jerk (ANJ) score compared with healthy subjects (schizophrenia patients [1]) | observer-based EPS assessments: medicated versus unmedicated groups and relationship with dose (schizophrenia patients [2]; conventional ratings) | correlation between observer-based severity ratings and dose (schizophrenia patients [2]; p>0.05) | correlation (r) of peak vertical velocity with daily dose (schizophrenia patients [3]) | motor impairment quantified by handwriting movements (schizophrenia patients [3]) | relationship between reduction in handwriting size (area) and dopamine receptor occupancy (dopamine receptor) | velocity scaling (VS) score (slope of peak vertical velocity versus vertical size) compared between medication groups (schizophrenia patients [4])
1 |  | OCCOCCN1CCN(C2=Nc3ccccc3Sc3ccccc32)CC1 [quetiapine] | significantly less abnormality than those treated with aripiprazole or risperidone | did not differ from normal healthy subjects |  |  |  |  |  | 
2 |  | Cc1nc2n(c(=O)c1CCN1CCC(c3noc4cc(F)ccc34)CC1)CCCC2 [risperidone] |  |  | not able to detect differences between risperidone-medicated and unmedicated groups or a relationship with risperidone dose | no significant correlations | −0.45 | significant motor impairment | significant relationship between reduction in handwriting size (expressed by area) and dopamine receptor occupancy | 
3 | doing worse than others | O=C1CCc2ccc(OCCCCN3CCN(c4cccc(Cl)c4Cl)CC3)cc2N1 [aripiprazole] | significantly higher ANJ | significantly higher ANJ scores than healthy subjects |  |  |  |  |  | lower VS scores than those on olanzapine or quetiapine; also recorded: lower VS scores than those on other medications
